Source: patent publication US10023587B2, “Oxabicycloheptanes and oxabicycloheptenes, their preparation and use” (LIXTE BIOTECHNOLOGY, INC., priority 2007, dated 2018)
pIC50: −log10 of the molar value. Entries after “also recorded” stand apart in the source; their conditions may differ. Read-outs that look alike come from different tables or passages of the source.

Key:
GBM cell line U373 [1] = experiment: Inhibition of growth of GBM cell line U373 by single agents (cell counts); assay type: cell-based, human; conditions: for Inhibition of growth of cell line U373 (in words): single agent; for pIC50: U373, exposure for 7 days, estimated from graphic plots (FIG. 1), read-out: concentration that inhibited brain tumor cell proliferation by 50% (IC50)
Excerpt: From graphic plots of the glioblastoma multiforme GBM cell line U373 (available from the National Institute of Neurological Disorders and Stroke Molecular Pathogenesis Unit, Building 10, Room 5 D37, National Institutes of Health, 900 Rockville Pike, Bethesda, Md., 20892) as a function of exposure to different doses of drug for 7 days, the concentration of each compound that inhibited brain tumor cell proliferation by 50% (IC50) was estimated.
To identify novel therapeutic targets for the treatment of glioblastoma multiforme (GBM), cantharidin analogues were evaluated for their ability to inhibit growth of glioblastoma multiforme cells. Specifically, GBM cell line U373 was used in evaluations.
The total number of cells is counted in the triplicate cultures at each dose and in controls after 7 days and the average number of cells and the standard deviation is determined.
(§1) The amount of inhibition of GBM cell growth is expressed as the proportion of the number of cells in the experimental dishes compared to the number of cells in control dishes containing only the drug vehicle and culture medium. The average percent of control is plotted and bracketed by one standard deviation calculated from the triplicate measurements.
For all cell culture experiments, cells are allowed to grow in the presence or absence of different concentrations of drug or in the presence of the vehicle used to dissolve the drug, PBS for compound 100 and DMSO for compound 102. Cell counts are done in triplicate on day 3 and day 7 and inhibition of growth is expressed as a percentage of the number of cells present in the experimental well divided by the number of cells in a control well.

[2] = system: breast cancer line, MCF-7; experiment: Inhibition of growth of breast cancer cell line MCF-7; assay type: cell-based; conditions: single agent, 7 days (FIG. 5)
Excerpt: (§2) To determine whether there is tumor type specificity of the inhibitory properties of analogues of Compound 100, retinoic acid and Trichostatin A, we measured their inhibitory effects as single agents against the GBM line U373, a breast cancer line, MCF-7 (obtained from ATCC) and a kidney cancer cell line, UMRC (UMRC obtained by Dr. Zhuang, NINDS, NIH from the Intramural Research Support Program, SAIC, National Cancer Institute, Frederick Cancer Research and Development Center).

[3] = system: kidney cancer cell line, UMRC; experiment: Inhibition of growth of kidney cancer cell line UMRC; assay type: cell-based; conditions: single agent, 7 days (FIG. 3)
Excerpt: as §2

GBM cell line U373 [4] = experiment: cells; assay type: cell-based, human
Protocol: To observe the effects Compound 100 in combination with retinoic acids, Compound 100 was combined with all-trans retinoic acid. […] The total number of cells is counted in the triplicate cultures at each dose and in controls after 7 days and the average number of cells and the standard deviation is determined.
as §1
Synergism (potentiation) of the inhibitory activity of two drugs in combination is said to be present when the percent survival in the presence of two drugs is less than the product of the percent survivals of the two drugs used alone at the same doses in the combination.

[5] = Solubility (water, lipid); assay type: physicochemical; conditions: own compounds
Stability at acid pH = assay type: physicochemical
[6] = known cantharidin homologs, stated as known; cited from earlier work

Row | SMILES | melting point | Inhibition of growth of cell line U373 (in words) (GBM cell line U373 [1]; 7 days) | Inhibition of growth of MCF-7 (in words) [2] | Sensitivity of UMRC compared with U373 (in words) [3] | further results
1 | COC(=O)C1C(C(=O)N2CCN(C)CC2)[C@@H]2CC[C@H]1O2 (stereo partly drawn) | 105 to 107 °C |  |  |  | 
2 | O=C(O)C1C(C(=O)N2CCNCC2)[C@@H]2CC[C@H]1O2 (stereo in doubt) [Compound 101, 3-(Piperazine-1-carbonyl)-7-oxa-bicyclo[2.2.1]heptane-2-carboxylic acid] | > 240 °C (dec.) | less activity |  |  | 
3 | O=C(O)C1C(C(=O)N2CCN(Cc3ccccc3)CC2)[C@@H]2CC[C@H]1O2 (stereo in doubt) [Compound 103, 3-(4-Benzylpiperazine-1-carbonyl)-7-oxa-bicyclo[2.2.1]heptane-2-carboxylic acid] | > 190 °C (dec.) | less activity |  |  | 
4 | COc1ccc(CCN2CCC(NC(=O)C3C(C(=O)O)[C@H]4CC[C@@H]3O4)CC2)cc1 (stereo in doubt) [Compound 104, 3-(1-[2-(4-Methoxy-phenyl)-ethyl]piperidin-4-ylcarbamoyl)-7-oxa-bicyclo[2.2.1]-heptane-2-carboxylic acid] | 140 to 142 °C | less activity |  |  | 
5 | CC1=C(/C=C/C(C)=C/C=C/C(C)=C/C(=O)O)C(C)(C)CCC1 [ATRA, all-trans retinoic acid] |  |  | an inhibition in growth | less sensitive than the brain tumor line, U373 | Inhibition of growth of MCF-7 (in words) ([2]; listed as all-trans retinoic acid): as sensitive as U373; activity at 25 µM (GBM cell line U373 [4]; Homo sapiens, U373 MG, 168 h, read-out: Percent of Control, Observed): 77%
6 | CC1=C(/C=C/C(C)=C/C=C/C(C)=C\C(=O)O)C(C)(C)CCC1 [Cis-RA, 13-cis Retinoic Acid] |  |  |  |  | Percent of Control, Observed (GBM cell line U373 [4]; Cis-RA 50 μM, U373 (Table 4)): 93.3 +/− 2.2% of Control
7 | CCN1CCN(C(=O)C2C(C(=O)O)[C@H]3CC[C@@H]2O3)CC1 (stereo partly drawn) [Compound 105, 1-(3-Exocarboxy-7-oxabicyclo[2.2.1]heptane-2-exocarbonyl)-4-ethylpiperazine] |  | Increasing dosages demonstrate a greater inhibition of growth |  |  | Inhibitory value against U373, comparison of the two compounds (GBM cell line U373 [1]; 10 μM, seven days (FIG. 8)): identical inhibitory values; Inhibition of growth of cell line U373 (in words) (GBM cell line U373 [1]; 7 days, listed as compound 105): highly active; Inhibition of growth of cell line U373 (in words) (GBM cell line U373 [1]; after three days (FIG. 6)): Increasing dosages demonstrate a greater inhibition of growth; Water solubility (in words) [5]: water soluble; Stability at acid pH (in words) (Stability at acid pH): stable at acid pH
8 | CN(C)CCNC(=O)C1C(C(=O)O)[C@H]2CC[C@@H]1O2 (stereo partly drawn) [Compound 106] | 48 to 50 °C | less activity |  |  | 
9 | CC(/C=C/C(=O)NO)=C\[C@@H](C)C(=O)c1ccc(N(C)C)cc1 [TSA, Trichostatin A] |  |  | an inhibition in growth | less sensitive than the brain tumor line, U373 | Inhibition of growth of MCF-7 (in words) ([2]; listed as Trichostatin A): as sensitive as U373; Percent of Control, Observed (GBM cell line U373 [4]; TSA 0.033 μM (0.01 μg/ml), U373 (Table 4)): 71.6 +/− 0.4% of Control
10 | C[C@@]12C(=O)OC(=O)[C@]1(C)[C@H]1CC[C@@H]2O1 [cantharidin] |  |  |  |  | Water solubility (in words) [6]: not
11 | O=C1SC(=O)[C@H]2[C@@H]1[C@@H]1CC[C@H]2O1 [endothal thioanhydride, reference compound] |  | Increasing dosages demonstrate a greater inhibition of growth; also recorded: greatest inhibition of growth | as sensitive as U373 | less sensitive than the brain tumor line, U373 | pIC50 (GBM cell line U373 [1]): 5.60
12 | O=C(O)[C@@H]1[C@H](C(=O)O)[C@H]2CC[C@@H]1O2 [endothal] |  | Increasing dosages demonstrate a greater inhibition of growth; also recorded: modest inhibition of growth | as sensitive as U373; also recorded: an inhibition in growth | less sensitive than the brain tumor line, U373 | pIC50 (GBM cell line U373 [1]): 4.82; Percent of Control, Observed (GBM cell line U373 [4]; END 10 uM, U373, 7 days (Table 3)): 65%
13 | O=C1OC(=O)[C@H]2[C@@H]1[C@H]1CC[C@H]2O1 [norcantharidin] |  | Increasing dosages demonstrate a greater inhibition of growth | as sensitive as U373 | less sensitive than the brain tumor line, U373 | Water solubility (in words) [6]: not; pIC50 (GBM cell line U373 [1]): 4.92
